Experimental data: patent publication EP4635958A1, “PYRIMIDINE-CONTAINING POLYCYCLIC DERIVATIVE INHIBITOR, AND PREPARATION METHOD THEREFOR AND USE THEREOF” (Shanghai Hansoh Biomedical Co., Ltd., priority 2022, dated 2024)

Tests used:
KRAS WT = KRAS WT (Homo sapiens, UniProt P01116); experiment: KRAS WT biochemical assay (Table 1, no method of its own); type: binding
p-ERK in AsPC-1 cells = experiment: Inhibition of p-ERK in AsPC-1 cells (LANCE Ultra phospho-ERK1/2 kit); type: cell-based; settings: Homo sapiens, ASPC1, 2 h with compound, read-out: AsPC-1_pERK IC50
Method: 1. Experimental objective: The inhibition activity of the example compounds on the phosphorylated ERK level in KRAS G12D mutant cells AsPC-1 was determined. 2. Experimental instruments: • 2.1 Instruments: Microplate reader (BioTek Synergy H1); Pipette (Eppendorf & Rainin) • 2.2 Reagents: Phosphorylated ERK1/2 (T202-Y204) LANCE Ultra Cellular Detection Kit was purchased from PerkinElmer, with a catalog number of TRF4000M; DMEM was purchased from Gibco, with a catalog number of 11995065; FBS was purchased from Gibco, with a catalog number of 10091148; PBS was purchased from Gibco, with a catalog number of 10010023; trypsin was purchased from Gibco, with a catalog number of 25200056; cell culture plates were purchased from Corning Company, with a catalog number of 3610; White opaque OptiPlate™-384 plates were purchased from PerkinElmer, with a catalog number of 6007290. 3. Experimental method: When AsPC-1 cells were cultured to appropriate confluence, the AsPC-1 cells were collected, and the cell density was adjusted to 1 × 10^6/mL using complete culture medium. […] The plate was read using BioTek Synergy H1 and the signal values at the emission wavelengths of 620 nm and 665 nm were detected using a time-resolved fluorescence program. […]

KRAS G12D-SOS1 = target: T1, KRAS G12D-SOS1 (Homo sapiens, UniProt P01116, G12D); experiment: Blocking of KRAS G12D-SOS1 protein binding (Cisbio KRAS-G12D/SOS1 Binding Assay Kit, time-resolved fluorescence)
T1 construct: purchased Cisbio 63ADK000CB17PEG
Source text: • 1. Experimental objective: […] Experimental reagents and instruments The centrifuge (5810R) was purchased from Eppendorf; the pipette was purchased from Eppendorf or Rainin; and the microplate reader was purchased from BioTek (United States) with a model of SynergyH1 multifunctional microplate reader. KRAS-G12D/SOS1 Binding Assay Kit was purchased from Cisbio, with a catalog number of 63ADK000CB17PEG; GTP was purchased from Sigma, with a catalog number of G8877; 384-well plate was purchased from Perkin Elmer, with a catalog number of 6007299. The Diluent buffer in the kit was used to dilute the compound into 10× compound solution of different concentrations, and 2 uL was added to each well of the 384-well plate. Tag2-KRAS G12D protein and GTP were formulated into a mixed solution of 5×KRAS G12D-GTP protein using Diluent buffer, and Tag1-SOS1 protein was formulated into a 5×SOS1 protein solution using Diluent buffer. Each solution was added to the 384-well plate separately at 4 uL per well, and incubated at room temperature for 15 min. A mixed solution of 2× anti-Tag1-Tb^3+ and anti-Tag2-XL665 formulated using detection buffer was added to the 384-well plate at 10 µL per well, and incubated at 4°C in the dark for 3 h.

[1] = rat, plasma
Source text: The purpose of this experiment was to detect the stability of the example compounds in plasma of mouse, rat, dog and human.
Liquid chromatography-mass spectrometer, centrifuge, vortexer, pipette, continuous dispenser, 96-well plate, 50% methanol aqueous solution, acetonitrile solution containing internal standard, blank matrix (plasma of rat, dog, or human), Propantheline (propantheline bromide), Mevinolin (lovastatin), and test compound.
After whole blood was collected from animals or humans, it was placed in a test tube containing an anticoagulant and centrifuged at 3500 rpm for 10 min to collect the upper pale yellow plasma.
The compound was weighed and the stock solution was formulated with DMSO and the working solution was formulated with 100 mM phosphate buffer.
2.36 mg of propantheline bromide was weighed and diluted with 1 mL of DMSO into a 10 mM stock solution; 10 µL of 10 mM stock solution was pipetted into 1 mL of 100 mM phosphate buffer to achieve a final concentration of 100 µM.
4.05 mg of lovastatin was weighed and diluted with 1 mL of DMSO into a 10 mM stock solution; 10 µL of 10 mM stock solution was pipetted into 1 mL of 100 mM phosphate buffer to achieve a final concentration of 100 µM.
• 1) In a 96-well plate, 285 µL of plasma and 15 µL of 10 µM compound (test compound) were added in sequence and incubated at 37°C. • 2) 40 µL was taken at 0, 15, 30, 60, 90, and 120 min (the sampling point can be fine-tuned) and 160 µL of acetonitrile stop solution containing internal standard was add. • 3) After centrifugation (3500 rpm, 10 min), 50 µL of supernatant was taken, and 50 µL of DDH2O added for dilution and then the obtained mixture was injected into LC-MS/MS.
• Instruments: Shimadzu LC-20 AD • Chromatographic column: Phenomenex Gemiu ® C18 (50*4.6 mm, 5 µm particle size); • mobile phase: A: Acetonitrile, B: 0.1% formic acid solution 0-8 min: 5% A→95% A, 2.0-2.1 min: 90%A→5% A; Flow rate: 0.8 mL/min; Run time: 5.0 min; Injection volume: 5 µL.
• Instrument: API4000 liquid chromatography-mass spectrometer, AB Company, USA; • the ion source was electrospray ionization source (ESI); • drying gas (N2) temperature was 500°C; • electrospray voltage was 5500V; • the detection method was positive ion detection; • the scanning method was selected reaction monitoring (MRM); • the scanning time was 0.1s.

KRAS WT, sequence (P01116 1-188 isoform P01116-2): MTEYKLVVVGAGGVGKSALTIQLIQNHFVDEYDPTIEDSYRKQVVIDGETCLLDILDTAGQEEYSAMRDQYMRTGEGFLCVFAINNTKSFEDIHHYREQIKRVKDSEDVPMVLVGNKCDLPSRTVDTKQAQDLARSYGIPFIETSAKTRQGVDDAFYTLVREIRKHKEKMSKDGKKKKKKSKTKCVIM
T1 sequence (P01116 1-188 isoform P01116-2 G12D): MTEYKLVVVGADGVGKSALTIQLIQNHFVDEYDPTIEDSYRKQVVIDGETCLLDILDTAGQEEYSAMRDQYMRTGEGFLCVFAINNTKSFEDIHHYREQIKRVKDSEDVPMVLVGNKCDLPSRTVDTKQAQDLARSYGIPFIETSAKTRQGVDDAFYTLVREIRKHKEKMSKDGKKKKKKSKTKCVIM

SMILES	IC50 (KRAS WT) [nM]	IC50 (p-ERK in AsPC-1 cells) [nM]	IC50 (KRAS G12D-SOS1) [nM]	Remaining rate (%) 0 min ([1]; 0 h) [%]	Remaining rate (%) 15 min ([1]; 0.25 h) [%]	Remaining rate (%) 30 min ([1]; 0.5 h) [%]	Remaining rate (%) 60 min ([1]; 1 h) [%]	Remaining rate (%) 120 min ([1]; 2 h) [%]
C#Cc1c(F)ccc2cc(O)cc(-c3nc4c5c(nc(OCC6(CN7CCC(=C(F)F)CC7)CC6)nc5c3F)N3C[C@H]5CC[C@H](N5)[C@H]3CO4)c12 [Example 1-1, 4-((5aS,6S,9R)-12-((1-((4-(difluoromethylene)piperidin-1-yl)methyl)cyclopropyl)methoxy)-1-fluoro-5a,6,7,8,9,10-hexahydro-5H-4-oxa-3,10a,11,13,14-pentaaza-6,9-methylenenaphtho[1,8-ab]heptalene-2-yl)-5-ethynyl-6-fluoronaphthalen-2-ol]	79	1	1.8	–	–	–	–	–
[2H]C([2H])([2H])[C@@H]1Oc2nc(-c3cc(O)cc4ccc(F)c(C#C)c34)c(F)c3nc(OCC4(CN5CCC(=C(F)F)CC5)CC4)nc(c23)N2C[C@H]3CC[C@H](N3)[C@@H]12 [Example 161, 4-((5S,5aS,6S,9R)-12-((1-((4-(difluoromethylene)piperidin-1-yl)methyl)cyclopropyl)methoxy)-1-fluoro-5-(methyl-d3)-5a,6,7,8,9,10-hexahydro-5H-4-oxa-3,10a,11,13,14-pentaaza-6,9-methylnaphtho[1,8-ab]hept-2-yl)-5-ethynyl-6-fluoronaphthalen-2-ol]	–	–	–	100.00	94.50	98.84	98.63	95.03
